Assay: Form IV stability by XRPD comparison to a reference standard after storage
Format: physicochemical
Conditions: stored at 25° C. and 65% relative humidity
Procedure: In some aspects, the XRPD pattern is generated using a PANALYTICAL® X'Pert Pro diffractometer using Ni-filtered Cu Kα (45 kV/40 mA) radiation and a step size of 0.03° 2θ with a X'CELERATOR® Real Time Multi-Strip detector, configured (a) on the incidental beam side as follows: variable divergence slits (10 mm irradiated length), 0.04 rad Soller slits, fixed anti-scatter slit (0.50°), and 10 mm beam mask, and (b) on the diffracted beam side as follows: variable anti-scatter slit (10 mm observed length) and 0.04 rad Soller slit or a BRUKER® D8® ADVANCE™ system using Cu Kα (40 kV/40 mA) radiation and a step size of 0.03° 2θ with a LYNXEYE™ detector, configured (a) on the incidental beam side as follows: Göebel mirror, mirror exit slit (0.2 mm), 2.5° Soller slit, beam knife, and (b) on the diffracted beam side as follows: anti-scatter slit (8 mm) and 2.5° Soller slit, wherein samples are mounted flat on zero-background Si wafers. In some aspects, the DSC pattern is generated using a TA Instruments Q100 or Q2000 differential scanning calorimeter at a rate of temperature increase of about 15° C./min.
Stability of Form IV material was determined by comparing the XRPD spectrum of a batch to a reference standard XRPD spectrum. This analysis was performed at batch release, and the XRPD spectrum obtained corresponded to that of the reference standard of Form IV (FIG. 2). […]

Changes in the XRPD spectrum over time (stability of Form IV) (XRPD at 68 months (FIG. 3A)): Undetectable changes
Changes in the XRPD spectrum over time (stability of Form IV) (XRPD at 140 months (FIG. 3B)): Undetectable changes
Compound: O=C(NOC[C@H](O)CO)c1ccc(F)c(F)c1Nc1ccc(I)cc1F [Form IV, N—((R)-2,3-dihydroxypropoxy)-3,4-difluoro-2-(2-fluoro-4-iodo-phenylamino)-benzamide]
